Tests used:
[1] = MAP4343 in the brain after TBI (LC-MS/MS); format: in vivo, rat; settings: 20 mg/kg single injection 2 h after TBI; 4 h after injection; CHI, LFP, CCI models
Description: FIG. 16: 3-methoxy-PREG (MAP4343) concentrations in the brain 4 h after a single injection of MAP4343 (20 mg/kg, injected 2 h after TBI or sham-surgery).
MAP4343 was dissolved in sesame oil and injected subcutaneously. Two distinct doses of MAP4343 (10 and 20 mg/kg) were tested in each model. The injection took place 2 h after trauma.
In order to establish whether TBI modifies the passage of MAP4343 into the brain, MAP4343 was measured by liquid chromatography associated to tandem mass spectrometry (LC-MS/MS) in the brain of animals sacrificed 6 h after CHI, LFP or CCI (4 h after MAP4343 single injection).
In order to establish whether TBI modifies the passage of 3-methoxy-PREG (MAP4343) into the brain, MAP4343 was measured by liquid chromatography coupled to tandem mass spectrometry LC-MS/MS in the brain of animals sacrificed 6 h after CHI, LFP or CCI (4 h after MAP4343 injection).

[2] = system: PC12 cells; test: Neuritic growth / sprouting in PC12 cells with NGF; format: cell-based, rat; settings: increasing concentrations, 2, 5 and 8 days of culture (FIG. 3)
Description: Each molecule was tested in three culture wells. Measurements were taken for 200 cells per well using Scion Image software.
Neurite (neurite) length was measured for 200 cells per well after 2, 5, and 8 days of culture.
Stimulation of neuritic sprouting is conducted on PC12 cells differentiated in the presence of NGF (10 ng/ml) and the steroid being tested (30 μM) for 3 days. For each condition, the average length of the longest 200 neurites in each cell is measured simultaneously for 3 cultures.

[3] = system: CHI traumatized animals; test: MRI of ventricular dilatation after Closed Head Injury (CHI); format: in vivo, rat; settings: 20 mg/kg starting 24 hours post-trauma, day 28, compared to the vehicle
Description: FIG. 17: Ventricular dilatation of Control animals injected with sesame oil (Control) and CHI traumatized animals injected with sesame oil (CHI-D0), or MAP4343 at 10 mg/kg (CHI-D1) or 20 mg/kg (CHI-D2) at day 28 post-trauma. (A) Representative MRI images.
The model “Closed Head Injury” (CHI), also commonly known as “weight-drop”, “impact-acceleration” or Marmarou model, allows the induction of TBI on a closed skull and generates diffuse axonal injuries (Holtzer et al 2001). After anesthesia induction, the scalp was incised, a piece of metal (diameter […], height 3 mm)—designed to protect against skull fracture—was glued to the skull, between the lambda and bregma. The animal was then placed on a foam bed and a cylindrical metallic 230-g weight was dropped from 2 m through a metal tubing onto the disk. At the very moment of the impact, the head of the animal plunged briefly in the foam bed, which leads to an acceleration/deceleration of the brain inside the skull. […]
MRI imaging of rats was performed at day 28 post-trauma. Based on MRI imaging, ventricular dilatation induced by CHI trauma was analyzed in CHI traumatized rats injected from 24 hours post-trauma with sesame oil (CHI-D0), or 3-methoxy-PREG (MAP4343) at 10 mg/kg (CHI-D1) or 20 mg/kg (CHI-D2).

[4] = Pharmacokinetics, GC/MS assay in brain and spinal cord; format: in vivo, rat; settings: rats, 12 mg/kg subcutaneous in sesame oil; 1, 4, 8, 24 hours
Description: FIG. 9: Kinetics of the appearance of 3-methoxy-PREG (43B) in rat brain and spinal cord following subcutaneous injection of 43B (12 mg/kg) in a sesame oil solution.
The pharmacokinetics of the molecules tested in vivo are evaluated using gas chromatography/mass spectrometry (GC/MS) assays.

[5] = molecular target: MAP2 (Homo sapiens, UniProt P11137); test: Binding (affinity) by displacement of PREG-^3H
MAP2, sequence (P11137 whole entry): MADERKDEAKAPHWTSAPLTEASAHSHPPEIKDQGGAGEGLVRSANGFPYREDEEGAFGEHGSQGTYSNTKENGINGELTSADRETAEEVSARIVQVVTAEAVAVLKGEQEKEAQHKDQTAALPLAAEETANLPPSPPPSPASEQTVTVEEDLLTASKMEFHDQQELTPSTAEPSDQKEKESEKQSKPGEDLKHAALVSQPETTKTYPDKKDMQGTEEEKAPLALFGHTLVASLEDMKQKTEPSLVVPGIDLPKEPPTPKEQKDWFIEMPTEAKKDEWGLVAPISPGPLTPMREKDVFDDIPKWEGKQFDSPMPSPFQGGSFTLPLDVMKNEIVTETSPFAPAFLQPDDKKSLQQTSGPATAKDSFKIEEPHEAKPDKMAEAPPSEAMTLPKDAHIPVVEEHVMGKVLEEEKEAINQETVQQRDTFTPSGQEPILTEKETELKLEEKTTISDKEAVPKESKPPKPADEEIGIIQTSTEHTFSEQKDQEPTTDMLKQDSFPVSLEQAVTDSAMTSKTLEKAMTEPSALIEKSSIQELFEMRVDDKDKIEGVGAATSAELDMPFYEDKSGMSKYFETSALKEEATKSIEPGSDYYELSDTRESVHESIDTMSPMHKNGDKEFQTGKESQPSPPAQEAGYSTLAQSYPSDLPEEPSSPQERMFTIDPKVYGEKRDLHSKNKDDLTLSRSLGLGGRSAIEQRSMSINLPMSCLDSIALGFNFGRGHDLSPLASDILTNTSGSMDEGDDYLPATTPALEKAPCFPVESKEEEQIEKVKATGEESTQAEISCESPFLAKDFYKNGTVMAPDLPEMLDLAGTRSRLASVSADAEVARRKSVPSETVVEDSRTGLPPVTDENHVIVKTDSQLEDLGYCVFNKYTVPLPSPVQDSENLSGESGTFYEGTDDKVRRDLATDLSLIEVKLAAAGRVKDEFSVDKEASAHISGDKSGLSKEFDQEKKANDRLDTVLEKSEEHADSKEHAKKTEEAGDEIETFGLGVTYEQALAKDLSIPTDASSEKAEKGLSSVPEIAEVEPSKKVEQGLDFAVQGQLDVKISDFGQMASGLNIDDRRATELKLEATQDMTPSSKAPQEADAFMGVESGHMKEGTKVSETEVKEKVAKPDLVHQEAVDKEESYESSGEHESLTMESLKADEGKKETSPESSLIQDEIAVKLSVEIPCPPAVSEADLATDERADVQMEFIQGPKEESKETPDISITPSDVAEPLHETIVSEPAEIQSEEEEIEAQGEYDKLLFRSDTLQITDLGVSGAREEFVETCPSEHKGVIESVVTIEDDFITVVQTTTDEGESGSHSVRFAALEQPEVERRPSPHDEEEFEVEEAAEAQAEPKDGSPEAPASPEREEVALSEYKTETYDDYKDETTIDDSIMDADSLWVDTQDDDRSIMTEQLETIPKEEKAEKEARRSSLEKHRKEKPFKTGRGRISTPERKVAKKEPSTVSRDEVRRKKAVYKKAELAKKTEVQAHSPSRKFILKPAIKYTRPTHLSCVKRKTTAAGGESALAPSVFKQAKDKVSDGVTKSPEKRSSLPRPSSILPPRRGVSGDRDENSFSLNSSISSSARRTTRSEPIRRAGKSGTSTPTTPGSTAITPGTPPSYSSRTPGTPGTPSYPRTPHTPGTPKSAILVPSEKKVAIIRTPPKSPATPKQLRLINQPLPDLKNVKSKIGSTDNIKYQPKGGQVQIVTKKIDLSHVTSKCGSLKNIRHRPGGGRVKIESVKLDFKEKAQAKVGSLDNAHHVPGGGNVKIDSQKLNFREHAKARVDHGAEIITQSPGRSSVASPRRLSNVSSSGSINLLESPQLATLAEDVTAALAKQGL
Description: Binding (affinity) is measured by the displacement of PREG-^3H.

[6] = system: spinal cord compression in rats; test: Spinal cord compression model, locomotor recovery (BBB score); format: in vivo, rat; settings: 12 mg/kg/day subcutaneous for 2 weeks; as of post-operation day 7
Description: FIG. 7: Effect of molecule 43B on locomotor recovery following spinal cord compression in rats. Animal locomotion was evaluated in a blind format during the 1-28 day post-operative period using the BBB score which evaluates the degree of paralysis (higher values correspond to better recovery). Statistical significance: * indicates p<0.001; ** indicates p<0.0001.
To determine the neuroprotective effects of the molecules tested, a spinal cord compression model is used. This model involves the total paralysis of the animals in the first few days following the operation. This period of paralysis is followed of a phase of approximately three weeks during which the animals partially recover their motor function. The study of this recovery using a simple and precise functional test based on observation of the animals (the BBB score) makes it possible to study the speed and the degree of recovery of the animals, with and without treatment.
Two groups of rats were subjected to spinal cord compression. Then, daily for 2 weeks, the animals received a subcutaneous injection containing either sesame oil alone (control group, n=20), or sesame oil containing molecule 43B (43B group, n=20; 12 mg/kg/day). The first injection was given minutes after spinal cord compression. Locomotion of the animals, using BBB scores, was evaluated in a blind format on post-operation days 1, 4, 7, 14, 21, and 28. […]

[7] = system: microtubule-associated MAP2 in PC12 cells; test: Immunolabeling of microtubule-associated MAP2 in PC12 cells; format: cell-based, rat; settings: 20 μM, NGF 10 ng/ml (FIG. 4)
Description: They were fixed and exposed to anti-MAP2 antibodies that reveal microtubule-associated MAP2 exclusively.
To test the effect of selected molecules on neuritic growth, we first used the PC12 line, which has long been employed in neurobiological research. In the presence of NGF (nerve growth factor), the cells of this line, which arise from a rat pheochromocytoma, form neuritic extensions containing MAP-associated microtubules. The growth of these elongations is stimulated by the addition of PREG. […] This neurite growth accompanies the stimulation by 43-B of the association of MAP2 to the microtubules (FIG. 4).

[8] = system: human neuroblastoma HS-SY5Y cells; test: Cytotoxicity of okadaic acid, steroid protection (LDH release); format: cell-based; settings: 24 hours, simultaneous addition, increasing concentrations
Description: FIG. 6: Toxicity of okadaic acid. Steroid protection. […] Cell death was indicated by the release of lactate dehydrogenase (LDH) in the culture medium.
Okadaic acid is a protein phosphatase inhibiter. Thus, the hyperphosphorylation of tau protein is implicated in microtubule depolymerization and in human neuroblastoma HS-SY5Y cell death. The exposure of SY5Y cell cultures to okadaic acid does in fact cause significant cell death.

Compound: CO[C@H]1CC[C@@]2(C)C(=CC[C@H]3[C@@H]4CC[C@H](C(C)=O)[C@@]4(C)CC[C@@H]32)C1 [3-methoxy-PREG, 3β-methoxy-pregna-5-ene-20-one]
- MAP4343 concentrations in the brain [1]: concentrations of MAP4343 of significant therapeutic interest reach the brain
- increase in the length of neurites formed in the presence of NGF [2]: ≤ 500%
- ventricular dilatation (ventricles area, MRI) [3]: significantly decreases the ventricular dilatation
- penetration into spinal cord and brain [4]: penetrates rapidly into the spinal cord and the brain
- Affinity (index of binding) [5]: 100% of PREG
- BBB score (locomotion) [6]: quite significantly higher than the control animals
- association of MAP2 to the microtubules [7]: stimulation
- cell death caused by okadaic acid (LDH release) [8]: the same effect, only much stronger
